According to patent US11268950B2, “Use of engineered renal tissues in assays” (Organovo, Inc., priority 2016, dated 2022):
Values joined by “and” are separate entries in the source; they are usually repeats but may differ in a detail not shown here. Equal entries are not always repeated. “Also recorded” adds a separate entry of the source. Each block holds one compound with its values, some of them ahead of it.

Columns and labels:
[1] = biological target: T1, SGLT2 (Homo sapiens, UniProt P31639); assay: Glucose (2-DG) uptake colorimetric assay in 3D PT tissues; assay type: cell-based
T1 construct: SGLT2 protein expression was detected primarily at the apical surface of RPTEC on 3D PT tissues; endogenous in cells; host or cells: bioprinted 3D PT tissue: primary human RPTEC on an interstitium of primary human renal fibroblasts and HUVEC
T1 sequence (P31639 1-672): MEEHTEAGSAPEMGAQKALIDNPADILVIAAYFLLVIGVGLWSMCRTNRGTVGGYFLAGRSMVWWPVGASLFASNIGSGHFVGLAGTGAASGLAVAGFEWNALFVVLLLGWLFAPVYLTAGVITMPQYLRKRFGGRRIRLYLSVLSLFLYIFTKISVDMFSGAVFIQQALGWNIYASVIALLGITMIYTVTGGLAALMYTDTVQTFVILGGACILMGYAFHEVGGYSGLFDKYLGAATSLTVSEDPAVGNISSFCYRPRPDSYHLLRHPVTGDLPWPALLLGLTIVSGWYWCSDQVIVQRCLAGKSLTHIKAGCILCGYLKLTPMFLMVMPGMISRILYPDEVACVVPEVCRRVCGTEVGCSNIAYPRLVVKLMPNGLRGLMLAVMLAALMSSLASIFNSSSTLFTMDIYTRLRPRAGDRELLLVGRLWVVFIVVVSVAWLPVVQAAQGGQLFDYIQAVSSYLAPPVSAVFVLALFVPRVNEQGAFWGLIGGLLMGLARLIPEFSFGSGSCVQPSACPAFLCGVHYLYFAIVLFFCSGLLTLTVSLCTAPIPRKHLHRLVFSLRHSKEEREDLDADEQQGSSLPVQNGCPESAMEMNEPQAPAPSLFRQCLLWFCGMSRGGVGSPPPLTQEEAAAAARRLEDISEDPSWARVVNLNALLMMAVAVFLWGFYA
Description: Glucose uptake in 3D PT tissues was detected and quantified according to the manufacturer's protocol (Abeam, Cambridge, Mass.). Insulin-Transferrin-Selenium (Gibco, Carlsbad, Calif.) was used to stimulate glucose uptake and canagliflozin (Santa Cruz Biotech, Dallas, Tex.) was used to inhibit SGLT2 function. […] Tissues were then pretreated with 1X insulin or 500 μM canagliflozin for 20 minutes, followed by addition of 1 mM 2-deoxyglucose. Tissues were washed extensively with PBS and lysed in extraction buffer in Precellys® lysis tubes (Precellys, Rockville, Md.).

[2] = test system: 3D PT tissues; conditions: OCT2 inhibition by cimetidine
Description: 3D PT Novo View™ Tissues were fabricated as described (Nguyen et al., 2016). Briefly, cultured renal fibroblasts and HUVEC were combined in a 50:50 ratio and resuspended in NovoGel® Bio-Ink, and then bioprinted onto 0.4 μm Transwell® clear polyester membrane inserts in a 24-well plate (Coming Costar, Coming, NY) using a NovoGen Bioprinter® Instrument (Organovo Inc., San Diego, Calif.) with previously established protocols (Forgacs et al., 2012; Murphy et al., 2015; Nguyen et al., 2016). Following bioprinting, NovoView′ Tissues were cultured in NovoView™ Kidney Media (Organovo, San Diego, Calif.). On culture day 3, primary RPTEC cells were added to the tissues in a suspension of 1.25×10^6 cells/ml in RPTEC media. […]
Assessment of metabolic activity as a surrogate for tissue viability and health was performed by alamarBlue™ assay according to the manufacturer's protocol (Thermo Fisher, Carlsbad, Calif.). […] After incubation, the alamarBlue′ solution was removed and fluorescence was measured on a BMG Labtech POLARstar® Omega reader (Cary, N.C.) with an excitation filter of 560 nm and an emission filter of 590 nm. Graphed data represent the percent relative fluorescence units (RFU) compared to blank for metabolic activity over time, or the percent RFU compared to vehicle control for toxicity studies.

[3] = humans, Zhang and Zhou, 2012; cited from earlier work
[4] = test system: 3D PT tissues; assay: PCNA staining, RPTEC proliferation in 3D PT tissues; assay type: cell-based, human; conditions: daily for 7 days
Description: 3D PT were fixed overnight in 2% paraformaldehyde (Electron Microscopy Sciences, Hatfield, Pa.). Tissues were oriented for transverse sectioning by pre-embedding in HistoGel™ (Thermo Fisher, Carlsbad, Calif.) and were then dehydrated and infiltrated with paraffin by automated processing on a Tissue-Tek VIP® tissue processing system (Sakura Finetek USA, Torrance, Calif.). Tissues were sectioned at 5 μM on a Leica® Reichert-Jung® Histocut microtome (Leica Biosystems, Buffalo Grove, Ill.). Hematoxylin and eosin (H&E) or Gomori's trichrome (TCM) stains were generated using a Leica® Autostainer XL (Leica Biosystems, Buffalo Grove, Ill.) according to manufacturer's instructions. Immunohistochemistry was performed as previously described (King et al., 2013) using the primary antibodies in Table 1. Following overnight incubation with primary antibodies at 4° C., sections were stained with AlexaFluor®-conjugated secondary antibodies (Thermo Fisher, Carlsbad, Calif.) at 1:200 dilution. For P-gp and SGLT2 detection, tyramide signal amplification was performed according to the manufacturer's instructions (Thermo Fisher, Carlsbad, Calif.). Slides were counterstained and mounted with FluoroGel II with DAPI (Electron Microscopy Sciences, Hatfield, Pa.). H&E and TCM images were acquired on a Zeiss® Axioskop with Zeiss® Zen software (Zeiss Microscopy, Thornwood, NY). Immunofluorescent images were acquired on a Zeiss® Axio® Imager A2 with Zeiss® Zen software.

[5] = test system: 3D PT tissues; assay: GGT activity of 3D PT tissues (epithelial function); assay type: cell-based, human; conditions: 5 μM cisplatin, daily for 7 days
Description: GGT activity was measured according to the manufacturer's protocol (Sigma Aldrich, St. Louis, Mo.). Tissues were washed twice with DPBS and lysed in GGT assay buffer in a Precellys® lysis tube (Precellys, Rockville, Md.). Lysate was assessed for GGT activity by comparison to a standard curve integration of absorbance normalized for volume and duration of incubation period at 37° C. using GraphPad Prism® software (GraphPad, San Diego, Calif.). Data shown represent the average GGT activity in mIU/ml for analysis of GGT function over time, or percent relative to vehicle for toxicity studies.

[6] = test system: 3D PT tissues; assay: LDH release from 3D PT tissues; assay type: cell-based, human; conditions: 5 μM cisplatin alone, treatment day 5 (peak)
Description: Lactate dehydrogenase (LDH) activity assay was performed according to the manufacturer's protocol (Abcam, Cambridge, Mass.). Conditioned media was collected from 3D PT tissues and further diluted in fresh media to ensure that the LDH activity of the sample was within the linear range of the assay. Samples were measured on a microplate reader (BMG Labtech, Cary, N.C.). LDH activity was determined by standard curve integration of absorbance normalized for volume and duration using GraphPad Prism® software (GraphPad, San Diego, Calif.). Data shown represent the fold change in LDH activity relative to vehicle control for each day of sampling.

[7] = test system: 3D PT tissues; assay: H&E histology of 3D PT tissues; conditions: daily for 7 days; 5 μM cisplatin, 1 mM cimetidine
Description: 3D PT were fixed overnight in 2% paraformaldehyde (Electron Microscopy Sciences, Hatfield, Pa.). Tissues were oriented for transverse sectioning by pre-embedding in HistoGel™ (Thermo Fisher, Carlsbad, Calif.) and were then dehydrated and infiltrated with paraffin by automated processing on a Tissue-Tek VIP® tissue processing system (Sakura Finetek USA, Torrance, Calif.). Tissues were sectioned at 5 μM on a Leica® Reichert-Jung® Histocut microtome (Leica Biosystems, Buffalo Grove, Ill.). Hematoxylin and eosin (H&E) or Gomori's trichrome (TCM) stains were generated using a Leica® Autostainer XL (Leica Biosystems, Buffalo Grove, Ill.) according to manufacturer's instructions. Immunohistochemistry was performed as previously described (King et al., 2013) using the primary antibodies in Table 1. Following overnight incubation with primary antibodies at 4° C., sections were stained with AlexaFluor®-conjugated secondary antibodies (Thermo Fisher, Carlsbad, Calif.) at 1:200 dilution. For P-gp and SGLT2 detection, tyramide signal amplification was performed according to the manufacturer's instructions (Thermo Fisher, Carlsbad, Calif.). Slides were counterstained and mounted with FluoroGel II with DAPI (Electron Microscopy Sciences, Hatfield, Pa.). H&E and TCM images were acquired on a Zeiss® Axioskop with Zeiss® Zen software (Zeiss Microscopy, Thornwood, NY). […]

[8] = test system: 3D PT tissues; assay: Passive permeability (Papp) of Lucifer yellow across 3D PT tissues; assay type: in vitro ADME, human; conditions: for Papp: Lucifer yellow 250 μM, 1 h, individual tissues 1-6 and average
Description: Tissues were then dosed with 250 μM Lucifer yellow (Thermo Fisher, Carlsbad, Calif.) to the apical compartment and fresh assay buffer in the basolateral (receiver) compartment. Following incubation for 1 h at 37° C., samples were taken from both the apical and basolateral compartments. Fluorescence in each sample was measured on a BMG plate reader with an excitation filter of 490 nm and an emission filter of 540 nm (BMG Labtech, Cary, N.C.) and normalized to a standard curve for quantification. Papp was calculated with equation 1, where V represents the volume of Lucifer yellow solution, T is the duration of the incubation, D0 is the concentration of Lucifer yellow applied to the cells, and A is the growth area of the Transwell® insert. Papp=(V/A×D0))*(ΔD/ΔT) Equation 1: […]

[9] = test system: ExVive™ Human Kidney Tissue; assay: Fibrosis-related gene expression by semi-quantitative RTPCR; assay type: cell-based; conditions: 0.37-10 ng/ml daily for seven days
Description: Fibrosis-related gene expression was also assessed on this ExVive™ Human Kidney Tissue treated with TGFβ. […] Data shown is the average of 3 tissue samples per condition. *p<0.0001 for each condition compared to vehicle control.

[10] = test system: ExVive™ Human Kidney Tissue; assay: ECM deposition (Gomori's Trichrome, Sirius red) in ExVive tissue; assay type: cell-based; conditions: 0.37-10 ng/ml daily for seven days
Excerpt: Data represents the average of 4 technical replicates per tissue, 3 tissues per condition and is represented as the fold change relative to the vehicle control following normalization to total protein content as measured by Fast Green staining. *p<0.05 for each condition compared to vehicle control.

[11] = test system: ExVive™ Human Kidney Tissue; assay: Resazurin conversion in ExVive Human Kidney Tissue; assay type: cell-based; conditions: 0.37-10 ng/ml daily for seven days
Description: (§1) As described in this present disclosure, the ExVive™ Human Kidney Tissue (Organovo, San Diego, Calif.) is a fully human three-dimensional (3D), bioprinted tissue comprised of an apical layer of polarized primary renal proximal tubule epithelial cells (RPTECs) supported by a collagen IV-rich tubulointerstitial interface of primary renal fibroblasts and endothelial cells. As renal fibrosis is a common downstream effect of drug-induced injury, the ExVive™ Human Kidney Tissue was treated with Transforming Growth Factor R (TGFI3 or TGFbeta), a key player of the fibrotic response, for purposes of evaluating tubulointerstitial fibrosis. Thus, to induce renal fibrosis, a healthy ExVive™ Human Kidney Tissue was treated with TGFI3, a key player of the fibrotic response. In particular, each healthy ExVive™ Human Kidney Tissue was dosed daily for seven days with vehicle control, 0.37 ng/ml TGFβ, 1.1ng/m1 TGFβ, 3.3 ng/ml TGFβ, or 10 ng/m1 TGFβ, respectively. Subsequently, after the ExVive™ Human Kidney Tissue was treated with TGFβ, an assessment of the viability and epithelial cell functions of this ExVive™ Human Kidney Tissue was conducted. […] Data shown is the average of 3 tissue samples per condition and is represented as the fold change relative to the vehicle control. *p<0.05; ***p<0.001 for each condition compared to vehicle control.

[12] = test system: ExVive™ Human Kidney Tissue; assay: GGT activity in ExVive Human Kidney Tissue; assay type: cell-based; conditions: 0.37-10 ng/ml daily for seven days
Description: as §1

[13] = biological target: T2, ACE (Homo sapiens, UniProt P12821); assay: ACE function: conversion of angiotensin I to angiotensin II (ELISA); assay type: cell-based; conditions: after 5 ng/ml human angiotensin I for 24 h
T2 construct: ACE protein was detected in both conditioned media and tissue lysates, with higher detection in the tissue lysates; endogenous in cells; host or cells: bioprinted 3D PT tissue: primary human RPTEC on an interstitium of primary human renal fibroblasts and HUVEC
Description: To evaluate ACE enzyme function, 3D PT tissues were treated for 24 h with 5 ng/ml human angiotensin I (Abeam, Cambridge, Mass.) and angiotensin II was then detected using a competitive ELISA kit from Sigma per the manufacturer's instructions (Sigma-Aldrich, St. Louis, Mo.). Plates were read at 450 nm within 30 minutes of addition of the stop solution (BMG Labtech, Cary, N.C.). The concentration of angiotensin II in the test samples was determined by comparison to the standard curve using GraphPad Prism® software (GraphPad, San Diego, Calif.).

[14] = biological target: T3, P-gp (Homo sapiens, UniProt P08183); assay: Rhodamine 123 transport / P-gp efflux in 3D PT tissues; assay type: cell-based; conditions: image quantification, 2 h, 5 μM zosuquidar
T3 construct: P-gp protein expression was detected at the apical surface of the RPTEC cells in the 3D PT model; endogenous in cells; host or cells: bioprinted 3D PT tissue: primary human RPTEC on an interstitium of primary human renal fibroblasts and HUVEC
T3 sequence (P08183 whole entry): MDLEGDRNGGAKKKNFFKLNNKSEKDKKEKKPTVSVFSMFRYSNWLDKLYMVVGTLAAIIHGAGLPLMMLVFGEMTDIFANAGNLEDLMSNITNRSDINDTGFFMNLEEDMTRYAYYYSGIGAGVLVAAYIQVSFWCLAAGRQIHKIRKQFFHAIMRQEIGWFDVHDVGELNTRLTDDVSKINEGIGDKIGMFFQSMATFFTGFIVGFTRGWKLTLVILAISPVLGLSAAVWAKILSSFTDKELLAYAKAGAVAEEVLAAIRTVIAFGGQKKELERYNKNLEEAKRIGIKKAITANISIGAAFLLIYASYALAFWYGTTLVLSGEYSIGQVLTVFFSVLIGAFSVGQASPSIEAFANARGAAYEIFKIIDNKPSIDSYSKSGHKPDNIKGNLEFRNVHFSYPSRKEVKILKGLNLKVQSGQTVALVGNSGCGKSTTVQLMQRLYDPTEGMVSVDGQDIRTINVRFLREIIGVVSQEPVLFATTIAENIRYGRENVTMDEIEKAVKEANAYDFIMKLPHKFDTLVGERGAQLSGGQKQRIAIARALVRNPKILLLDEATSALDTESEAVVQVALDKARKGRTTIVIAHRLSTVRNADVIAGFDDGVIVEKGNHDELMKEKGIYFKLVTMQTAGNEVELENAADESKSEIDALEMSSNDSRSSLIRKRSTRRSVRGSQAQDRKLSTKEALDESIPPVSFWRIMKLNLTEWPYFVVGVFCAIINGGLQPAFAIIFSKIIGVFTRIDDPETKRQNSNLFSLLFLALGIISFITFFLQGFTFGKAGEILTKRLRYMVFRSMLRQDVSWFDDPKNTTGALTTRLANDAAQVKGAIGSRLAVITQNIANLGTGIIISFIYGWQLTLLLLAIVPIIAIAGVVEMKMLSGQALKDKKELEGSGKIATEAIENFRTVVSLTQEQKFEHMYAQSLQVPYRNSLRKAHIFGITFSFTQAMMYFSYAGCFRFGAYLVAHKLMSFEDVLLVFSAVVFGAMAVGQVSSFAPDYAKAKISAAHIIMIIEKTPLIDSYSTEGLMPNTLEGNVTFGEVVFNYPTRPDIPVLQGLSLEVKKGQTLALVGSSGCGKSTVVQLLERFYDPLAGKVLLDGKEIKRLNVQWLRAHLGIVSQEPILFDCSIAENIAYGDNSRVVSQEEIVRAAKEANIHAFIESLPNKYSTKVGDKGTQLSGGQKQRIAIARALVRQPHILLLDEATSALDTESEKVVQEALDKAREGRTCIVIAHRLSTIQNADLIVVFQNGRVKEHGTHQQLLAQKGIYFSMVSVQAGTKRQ
Description: Both apical and basolateral sides of tissues were then pre-incubated for 20 min at 37° C. in assay buffer in the presence or absence of 5 μM zosuquidar (Sigma Aldrich, St. Louis, Mo.). Following pre-treatment, tissues were dosed on the basolateral side with 1 μM rhodamine 123 (Molecular Probes, Eugene, Oreg.) with or without 5 μM zosuquidar for 2h at 37° C. After incubation, the tissues were washed with cold assay buffer, fixed with 2% PFA, and cryosectioned. Images were captured at the same exposure time across all conditions. Fluorescence intensity, corrected for background and relative area, was calculated in Image J (National Institutes of Health, Bethesda, Md.) and graphed as fold change relative to control using GraphPad Prism® software (GraphPad, San Diego).

T2 sequence (P12821 30-1306): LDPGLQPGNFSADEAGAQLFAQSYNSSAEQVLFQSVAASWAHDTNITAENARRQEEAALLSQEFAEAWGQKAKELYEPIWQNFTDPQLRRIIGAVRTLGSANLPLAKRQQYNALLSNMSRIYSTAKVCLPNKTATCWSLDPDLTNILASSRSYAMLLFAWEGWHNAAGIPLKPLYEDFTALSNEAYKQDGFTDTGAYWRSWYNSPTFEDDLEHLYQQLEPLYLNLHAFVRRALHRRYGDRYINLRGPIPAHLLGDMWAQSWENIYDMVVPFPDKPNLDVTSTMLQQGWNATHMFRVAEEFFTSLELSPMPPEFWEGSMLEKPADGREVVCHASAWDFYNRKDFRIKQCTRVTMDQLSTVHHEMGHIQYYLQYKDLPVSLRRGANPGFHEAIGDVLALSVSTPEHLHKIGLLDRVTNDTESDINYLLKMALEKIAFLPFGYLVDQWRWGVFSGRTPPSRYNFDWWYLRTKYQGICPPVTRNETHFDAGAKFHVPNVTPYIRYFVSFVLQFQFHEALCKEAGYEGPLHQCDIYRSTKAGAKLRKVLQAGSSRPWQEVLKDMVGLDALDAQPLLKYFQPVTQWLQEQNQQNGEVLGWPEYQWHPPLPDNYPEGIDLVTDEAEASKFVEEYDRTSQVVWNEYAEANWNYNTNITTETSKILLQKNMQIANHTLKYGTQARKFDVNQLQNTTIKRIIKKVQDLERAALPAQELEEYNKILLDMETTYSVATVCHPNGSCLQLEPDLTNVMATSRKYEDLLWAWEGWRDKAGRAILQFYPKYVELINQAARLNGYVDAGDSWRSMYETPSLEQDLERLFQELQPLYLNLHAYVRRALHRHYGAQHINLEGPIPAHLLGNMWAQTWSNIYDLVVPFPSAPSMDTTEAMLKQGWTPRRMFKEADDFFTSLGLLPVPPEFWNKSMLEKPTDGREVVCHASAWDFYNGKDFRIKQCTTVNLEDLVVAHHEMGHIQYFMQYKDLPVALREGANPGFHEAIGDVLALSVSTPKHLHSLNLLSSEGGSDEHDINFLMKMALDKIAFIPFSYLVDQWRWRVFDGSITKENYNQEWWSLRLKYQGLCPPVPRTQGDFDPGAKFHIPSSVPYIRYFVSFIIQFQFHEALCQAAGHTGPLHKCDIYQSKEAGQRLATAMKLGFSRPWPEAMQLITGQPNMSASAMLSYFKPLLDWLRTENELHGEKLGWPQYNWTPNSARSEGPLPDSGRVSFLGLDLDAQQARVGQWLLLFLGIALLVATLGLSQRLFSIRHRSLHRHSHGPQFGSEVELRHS

Compound: CN/C(=N/CCSCc1nc[nH]c1C)NC#N [cimetidine]
protection against cisplatin-induced loss of viability and epithelial function [2]: successfully protected | urinary cystatin C following cisplatin administration [3]: decreased urinary cystatin C | RPTEC proliferation (PCNA) [4]: low levels of RPTEC proliferation

Compound: N.N.[Cl][Pt][Cl] [cisplatin]
reduction in GGT activity [5]: ~50% | LDH release, increase over vehicle controls [6]: 3 fold | epithelial morphology (H&E) [7]: more squamous morphology and loss of nuclei | RPTEC proliferation (PCNA) [4]: dose-dependent proliferative response; also recorded: dose-dependent increase in proliferating RPTEC

Compound: TGFβ
fibrosis-related gene expression (COL1A1, CTGF, FAP, PDGFRB) [9]: induction of the fibrotic markers; also recorded: increase in the expression of fibrosis-related genes | tissue thickness and extracellular matrix deposition [10]: induces tissue thickening and increased extracellular matrix deposition; also recorded: extensive ECM deposition in the interstitium | Resazurin conversion (overall tissue metabolic activity) [11]: No statistically significant differences | GGT activity (epithelial cell function) [12]: Statistically significant reduction in RPTEC function was detected with higher doses; also recorded: loss of epithelial cell function at the highest dose

Compound: insulin: Insulin-Transferrin-Selenium (Gibco) used to stimulate glucose uptake
increase in intracellular 2-DG ([1]; tissues in normal tissue media): 4 fold | increase in glucose uptake ([1]; tissues starved overnight): 8 fold

Now from value to compound, other results behind:

decrease of insulin-induced intracellular 2-DG ([1]; normal tissue media, co-administration with insulin, 500 μM canagliflozin): 50%
Compound: Cc1ccc([C@@H]2O[C@H](CO)[C@@H](O)[C@H](O)[C@H]2O)cc1Cc1ccc(-c2ccc(F)cc2)s1 [canagliflozin]
effect on insulin-induced glucose uptake ([1]; tissues starved overnight, 500 μM canagliflozin): significantly reduced by canagliflozin to levels indistinguishable from the control tissues

Papp ([8]; mean): 2.97 ± 0.17 ×10^−6 cm/s | average Papp ([8]; Lucifer yellow, 3D PT tissues): 29.7 nm/s
Compound: Lucifer yellow
Papp [8]: 2.93e-06 cm/s and 2.63e-06 cm/s and 2.73e-06 cm/s and 2.66e-06 cm/s and 3.74e-06 cm/s and 3.11e-06 cm/s

angiotensin II detected [13]: 0.4 pg/mL
Compound: angiotensin I: human angiotensin I (Abcam), ACE substrate (DRVYIHPFHL; Angiotensin-1; UniProt P01019 25-34, looked up)

increase in fluorescence over control tissues [14]: 4 fold
Compound: rhodamine 123 [R123]
